Results on 39 compounds are retold here after ChEMBL document CHEMBL3507680, “University of Dundee, Gates Library screen for HepG2 cell viability”.

The nature of the series: Human HepG2 cell viability assay in 384 well format. Type of series: toxicity, cell-based. Also on record: dose 125 nL, time 70.5 hour; concentration not given beside the values. The conditions noted are these: HepG2 cells, read-out: Inhibition.
As to `CC(Cn1cccn1)NC(=O)Nc1nncs1` (centres undefined), the cytotoxicity at 70.5 h is -2.31%.
For `CS(=O)(=O)c1cccc(S(=O)(=O)NC(=O)CCC2CCCCC2)c1` the value was -7.19%; for `CN1CC2(CCN(C(=O)c3ccc4nccnc4c3)CC2)CC1=O`, -4.39%; for `Cc1nn(CCC#N)c(C)c1CCC(=O)N(C)Cc1ccc(F)cc1F`, -4.98%.
For the compound `O=c1cc(-c2ccc(F)cc2)nc2n1CCCCC2`, the cytotoxicity at 70.5 h is -14%.
The same measure for `Cc1cccc(N2CC[C@H]3CO[C@H](CN(C)Cc4ccco4)[C@H]3C2)n1`: -2.06%; for `CC1CCN(c2ccc(C(=O)N3CCCC3c3ccc[nH]3)cn2)CC1` (centres undefined): 5.1%.
As for `Cc1nnc(NC(=O)CN2CCc3nn(C(C)C)c(=O)cc3C2)s1`, the cytotoxicity at 70.5 h is -6.14%.
The same measure for `CC1(C)CC(N(Cc2ccccc2)Cc2cccnc2)CC(C)(C)N1`: 30.7%; for `Cc1ccc(C(=O)N2C[C@@H](N3CCN(C)CC3)[C@H]3OCCC[C@H]32)cn1`: -11.9%; for `Cc1cc(CNC(=O)c2ccc(F)c(COCC3CC3)c2)no1`: -9.69%.
For `O=S(=O)(NCc1ccnc(-n2ccnc2)c1)c1cncc(Cl)c1` the value was -0.226%; for `CN1CC(=O)N(c2ccccc2)CC12CCN(CC1CC1)C2` (centres undefined), -26.6%.
Consider `O=C(c1cccnc1)N1CCCC2(CCN(c3ccsc3)C2=O)C1` (centres undefined), for which the cytotoxicity at 70.5 h amounted to 13.9%.
The same measure for `Cc1ccc(C2CN(Cc3cccc4[nH]ccc34)CCO2)nc1` (centres undefined): 46%; for `CC(C)C(NC(N)=O)C(=O)N1CCN(c2ccccc2Cl)C(=O)C1` (centres undefined): -9.59%; for `O=C(NC1CCN(C2CC2)CC1)c1cn(-c2ccc(Cl)cc2)nn1`: -7.11%.
The same measure for `CN(C)CCCNC(=O)c1ccc(N(C)S(C)(=O)=O)cc1Cl`: -5.53%; for `Cc1cc(N2CCN3CCCCC3C2)n2nc(C)c(C)c2n1` (centres undefined): 1.57%; for `Cn1ccnc1CN1CCCC(CCc2ccc(F)c(F)c2)C1` (centres undefined): -1.61%.
The same measure for `CCN(C)c1ncnc2c1CCN(C(=O)c1ccsc1)CC2`: -0.977%.
In the case of `CCOCC(O)CN1CCN(C(=O)C2CCCCC2)CC1` (centres undefined), the cytotoxicity at 70.5 h is -0.878%.
The same measure for `COc1ccc(CCC(=O)Nc2ccncc2C)cc1`: -9.71%.
For `Cn1cc(C2COC3(CCN(C(=O)c4ccn(C)n4)CC3)C2)cn1` (centres undefined) the value was -14.5%; for `COC(=O)CC(c1ccc(OC)c(OC)c1OC)c1c(O)n[nH]c1C` (centres undefined), -15.1%; for `O=C(COC1CCCC1)N1CCCN(c2ncccn2)CC1`, -2.52%.
The same measure for `CC(C)Oc1ccc2c(NC(=O)CNC(N)=O)nn(CC(F)(F)F)c2c1`: 3.1%.
Turning to `CS(=O)(=O)c1ccc(OCCNCc2ccc(F)cc2)cc1`, the cytotoxicity at 70.5 h is -1.74%.
With `O=C(O)Cn1ccc2c(Cl)cccc21`, the cytotoxicity at 70.5 h was -1.23%.
Consider `O=C(c1cccnc1)N1CCc2onc(CN3CCCC3)c2C1`, for which the cytotoxicity at 70.5 h is -4.02%.
For `CCOc1cccc(CNC(=O)NCC(O)c2cccc(F)c2)c1` (centres undefined) the value was 10.6%.
For `c1cnc(NC[C@H]2OC[C@@H]3CCN(Cc4ccncc4)C[C@@H]32)nc1` the value was 17.4%; for `Cn1cccc1C(=O)N1CCn2cc(CNC(=O)CC3CC3)nc2C1`, -10.2%.
For `CCOCc1cccc(S(=O)(=O)N2CCSCC2)c1` the value was -3.6%; for `Cc1csc(CCNc2ccc(C#N)cn2)n1`, -11.4%.
For `CC1=Nc2c(c(=O)[nH]n2C(C)C)C(c2ccc3ncccc3c2)S1` (centres undefined), the cytotoxicity at 70.5 h came to 0.555%.
For `N#Cc1ccccc1N1CCC(Nc2nccnc2C#N)CC1` the value was 0.142%.
The same measure for `CC(C)(C)OC(=O)NC1CCCN(Cc2cccs2)C1` (centres undefined): 6.34%; for `CC1(C)Cc2cc(-c3cncn3CCNC3CCS(=O)(=O)C3)ccc2O1` (centres undefined): -0.723%.
